Results reported in patent publication US12435060B2, “Acylamino bridged heterocyclic compound, and composition and application thereof” (BEIJING SCITECH-MQ PHARMACEUTICALS LIMITED, priority 2019, dated 2025).

Legend:
[1] = target: T1, RIPK1 (Homo sapiens, UniProt Q13546); experiment: Western blot determination of inhibition of RIPK1 phosphorylation in HT29 cells; format: cell-based; conditions: Z-VAD-FMK 20 μM, TNF-α 20 ng/mL, AT-406 100 nM, 7 hours, FIG. 1 and FIG. 2
T1 construct: the phosphorylation of intracellular RIPK1 during the induction of programmed necrosis of HT29 cells; endogenous in cells; host or cells: HT29 cells
T1 sequence (Q13546 1-671): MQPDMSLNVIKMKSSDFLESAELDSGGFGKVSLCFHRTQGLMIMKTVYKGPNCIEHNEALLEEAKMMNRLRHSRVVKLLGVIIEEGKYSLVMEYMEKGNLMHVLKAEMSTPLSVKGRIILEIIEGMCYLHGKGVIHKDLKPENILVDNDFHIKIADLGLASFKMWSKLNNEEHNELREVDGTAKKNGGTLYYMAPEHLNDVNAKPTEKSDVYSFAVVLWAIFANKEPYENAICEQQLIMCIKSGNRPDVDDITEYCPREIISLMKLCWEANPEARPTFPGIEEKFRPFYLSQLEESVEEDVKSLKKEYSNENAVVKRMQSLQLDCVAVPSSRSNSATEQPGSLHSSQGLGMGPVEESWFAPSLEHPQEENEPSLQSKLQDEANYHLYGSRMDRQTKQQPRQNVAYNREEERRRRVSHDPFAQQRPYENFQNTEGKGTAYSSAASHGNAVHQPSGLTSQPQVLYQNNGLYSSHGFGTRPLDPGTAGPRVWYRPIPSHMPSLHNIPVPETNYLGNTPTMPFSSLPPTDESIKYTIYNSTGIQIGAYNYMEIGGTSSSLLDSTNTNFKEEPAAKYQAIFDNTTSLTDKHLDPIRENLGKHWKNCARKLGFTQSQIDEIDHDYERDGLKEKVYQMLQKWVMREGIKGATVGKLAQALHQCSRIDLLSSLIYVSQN
Description: Assay Example 1. Western Blot Determination of Inhibition of Compounds on RIPK1 Phosphorylation in HT29 Cells
Western blot was used to determine the effect of the test compounds on the phosphorylation of intracellular RIPK1 during the induction of programmed necrosis of HT29 cells, verifying the effect of compounds on RIPK1 phosphorylation, and initially estimating the IC50 range of compounds for RIPK1 phosphorylation.
II. Experiment Procedure • 1. […] 40-50 ug of protein sample to be determined or pre-stained two-color protein molecular weight standard were added to each well. • 4. […]

[2] = system: HT29 cells; experiment: Inhibition of cell necrosis (CCK8 method), induced programmed necrosis of HT29 cells; format: cell-based; conditions: Homo sapiens, HT-29; rescue from necrosis induced by TNF-α 20 ng/mL, AT-406 1 μM, Z-VAD-FMK 20 μM; 16-20 hours; CCK-8, OD 450 nm
Method in brief: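 HT29 cells in McCOY's 5A with 10% FBS were pre-treated for 30 min with compound (9 fourfold steps, 25000 to 0.38 nM final, 0.25% DMSO). Necrosis was then induced with TNF-α 20 ng/mL, AT-406 1 μM and Z-VAD-FMK 20 μM for 16-20 h. Viability was read by CCK-8 OD450, normalized between uninduced and induced wells, and IC50 was curve-fitted.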

Structure (SMILES) | inhibition of RIPK1 phosphorylation [1] | IC50 [2]
Cc1ccccc1-c1ccnc(NC(=O)c2nnc(Cc3ccccc3)[nH]2)c1 [Example 2, 5-benzyl-N-(4-(o-methylphenyl)pyridin-2-yl)-4H-1,2,4-triazole-3-carboxamide] | directly inhibit the phosphorylation activation of RIPK1 | 100 to 1000 nM
CC(C)(O)COc1ccc(C(F)(F)F)c(-c2ccnc(NC(=O)c3nnc(CC4CCCC4)[nH]3)c2)c1 [Example 266, 5-(cyclopentylmethyl)-N-(4-(5-(2-hydroxyl-2-methylpropoxy)-2-(trifluoromethyl)phenyl)pyridin-2-yl)-4H-1,2,4-triazole-3-carboxamide] | – | ≤ 100 nM
